Structures are written as SMILES.

For the first assay, the target named is T1, human ENT1 (Homo sapiens, UniProt Q99808).
T1 construct: JAR cells expressing ENT1 were purchased from ATCC; host or cells: JAR cells
T1 sequence (Q99808 1-456): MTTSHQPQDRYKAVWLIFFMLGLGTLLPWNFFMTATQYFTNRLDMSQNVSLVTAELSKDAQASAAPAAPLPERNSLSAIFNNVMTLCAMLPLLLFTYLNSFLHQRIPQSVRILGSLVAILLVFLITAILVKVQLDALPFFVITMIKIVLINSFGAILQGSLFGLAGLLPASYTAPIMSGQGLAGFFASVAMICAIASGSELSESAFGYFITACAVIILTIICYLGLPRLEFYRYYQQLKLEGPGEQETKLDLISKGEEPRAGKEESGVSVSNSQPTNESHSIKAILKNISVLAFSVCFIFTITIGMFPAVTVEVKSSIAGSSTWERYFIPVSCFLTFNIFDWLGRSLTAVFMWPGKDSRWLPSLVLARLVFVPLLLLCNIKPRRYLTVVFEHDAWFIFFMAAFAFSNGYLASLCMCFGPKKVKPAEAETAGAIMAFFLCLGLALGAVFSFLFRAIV
Nature of the assay: ENT1 binding assay (competition with Sahenta-DY647 on JAR cells). Particulars: Binding Assay IC50, competition with SAHENTA-DY647 binding; IC50 categorized. Summed up:
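Fluorescent-tracer displacement: compound incubated with JAR cells 30 min, 4 °C, before Sahenta-DY647 (100 nM) for another 30 min, 4 °C, in Hepes-buffered HBSS with 0.1% BSA. Bound tracer read at 670 nm after washes; IC50 from four-parameter fit, reported as mean of pIC50 values.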
Take `C[C@H]1O[C@@H](n2cnc3c(SCc4ccccc4)ncnc32)[C@H](O)[C@@H]1O` [Compound 224]: the IC50 was > 500 nM.

Staying with this assay, now noted: competition with SAHENTA-DY647 binding; IC50 categorized; read-out: Binding Assay IC50.
On to `CC(C)Oc1cccc(CSc2ncnc3c2ncn3[C@@H]2O[C@H](C)[C@@H](O)[C@H]2O)c1` [Compound 365], for which the IC50 was > 500 nM.
On the same count and under the same terms, under `C[C@H]1O[C@@H](n2cnc3c(OCc4ccc([N+](=O)[O-])cc4)nc(O)nc32)[C@H](O)[C@@H]1O` [Compound 256] stands > 500 nM; under `C[C@H]1O[C@@H](n2c(N[C@H]3CC[C@@](C)(O)CC3)nc3c(OCc4ccc(F)cc4)ncnc32)[C@H](O)[C@@H]1O` [Compound 130], 1 to 20 nM; under `C[C@H]1O[C@@H](n2c(N[C@H]3CC[C@@](C)(O)CC3)nc3c(N4CCc5ccc([N+](=O)[O-])cc5C4)ncnc32)[C@H](O)[C@@H]1O` [Compound 139], < 1 nM.
On the same count and under the same terms, under `C[C@H]1O[C@@H](n2c(NCC3CCC(F)(F)CC3)nc3c(OCc4ccc(C#N)cc4)ncnc32)[C@H](O)[C@@H]1O` [Compound 106] stands 1 to 20 nM.
As for `C[C@H]1O[C@@H](n2cnc3c(C(=O)NCc4ccc([N+](=O)[O-])cc4)ncnc32)[C@H](O)[C@@H]1O` [Compound 312], the IC50 was > 500 nM.
On the same count and under the same terms, the same measure for `C[C@H]1O[C@@H](n2cnc3c(C(=O)N4CCc5cc([N+](=O)[O-])ccc5C4)ncnc32)[C@H](O)[C@@H]1O` [Compound 302]: > 500 nM; for `C[C@H]1O[C@@H](n2cnc3c(OCc4ccc(C(F)(F)F)cc4Cl)ncnc32)[C@H](O)[C@@H]1O` [Compound 307]: > 500 nM; for `C[C@H]1O[C@@H](n2cnc3c(SCc4ccc(C(=O)O)cc4)ncnc32)[C@H](O)[C@@H]1O` [Compound 409]: > 500 nM.
Still for that read-out and setting: under `C[C@H]1O[C@@H](n2cnc3c(C(=O)NCc4ccc(Cl)cc4)ncnc32)[C@H](O)[C@@H]1O` [Compound 353] stands > 500 nM; under `CC1OC(n2c(NC3CC(C)(O)C3)nc3c(N4CCc5ccc([N+](=O)[O-])cc5C4)ncnc32)C(O)C1O` (single isomer, unassigned) [Compound 137], < 1 nM; under `C[C@H]1O[C@@H](n2cnc3c(SCc4cc(-c5ccco5)on4)ncnc32)[C@H](O)[C@@H]1O` [Compound 359], > 500 nM.
`O=[N+]([O-])c1ccc(COc2ncnc3c2ncn3[C@@H]2O[C@H](CO)[C@@H](O)C2(F)F)cc1` [Compound 220]: the IC50 is > 500 nM.
`COCCCNc1nc2c(N3CCc4ccc(C#N)cc4C3)ncnc2n1[C@@H]1O[C@H](C)[C@@H](O)[C@H]1O` [Compound 160]: the IC50 was 1 to 20 nM.
Same read-out and setting: the same measure for `C[C@H]1O[C@@H](n2cnc3c(OCc4ccc(-c5cnco5)cc4)ncnc32)[C@H](O)[C@@H]1O` [Compound 291]: > 500 nM; for `C[C@H]1O[C@@H](n2cnc3c(OCc4ccc(-n5cncn5)cc4)ncnc32)[C@H](O)[C@@H]1O` [Compound 314]: > 500 nM; for `C[C@H]1OC(n2cnc3c(COc4ccc(OC(F)F)cc4)ncnc32)[C@H](O)[C@@H]1O` (some centres unmarked) [Compound 233]: > 500 nM.
Take `C[C@H]1O[C@@H](n2cnc3c(SCc4ncc(F)cc4F)ncnc32)[C@H](O)[C@@H]1O` [Compound 337]: the IC50 was > 500 nM.
On to `Cc1cc2cc(CNc3ncnc4c3ncn4[C@@H]3O[C@H](C)[C@@H](O)[C@H]3O)ccc2[nH]1` [Compound 339], for which the IC50 was > 500 nM.
Same read-out and setting: under `Cc1ccc2nc(CSc3ncnc4c3ncn4[C@@H]3O[C@H](C)[C@@H](O)[C@H]3O)cn2c1` [Compound 396] stands > 500 nM.
As for `C[C@H]1O[C@@H](n2cnc3c(SCc4cnc(C(F)(F)F)nc4)ncnc32)[C@H](O)[C@@H]1O` [Compound 311], the IC50 is > 500 nM.
Still for that read-out and setting: the same measure for `C[C@H]1O[C@@H](n2cnc3c(SCc4ccc(C(F)(F)F)nc4)ncnc32)[C@H](O)[C@@H]1O` [Compound 270]: > 500 nM; for `COc1ccc(COc2ncnc3c2ncn3[C@@H]2O[C@H](C)[C@@H](O)[C@H]2O)cc1` [Compound 231]: > 500 nM.
Same read-out and setting: the same measure for `C[C@H]1O[C@@H](n2cnc3c(C(=O)NCc4ccc(OC(F)(F)F)cc4)ncnc32)[C@H](O)[C@@H]1O` [Compound 295]: > 500 nM; for `C[C@H]1O[C@@H](n2cnc3c(OCCc4ccc(OCF)cc4)ncnc32)[C@H](O)[C@@H]1O` [Compound 343]: > 500 nM.
Still for that read-out and setting: the same measure for `C[C@H]1O[C@@H](n2cnc3c(OCc4ccc([N+](=O)[O-])cc4)nc(Cl)nc32)[C@H](O)[C@@H]1O` [Compound 222]: > 500 nM; for `Cc1cc(Cl)ccc1COc1ncnc2c1ncn2[C@@H]1O[C@H](C)[C@@H](O)[C@H]1O` [Compound 235]: > 500 nM.
On to `C[C@H]1O[C@@H](n2c(C(=O)NC3CCCC3)nc3c(OCc4ccc([N+](=O)[O-])cc4)ncnc32)[C@H](O)[C@@H]1O` [Compound 3], for which the IC50 lay within 20 to 500 nM.
The same measure, in the same setting: under `C[C@H]1O[C@@H](n2c(N[C@H]3CC[C@](C)(O)CC3)nc3c(OCc4ccc(C#N)cc4)ncnc32)[C@H](O)[C@@H]1O` [Compound 132] stands 1 to 20 nM; under `C[C@H]1O[C@@H](n2cnc3c(OCCc4ccc(OC(F)(F)F)nc4)ncnc32)[C@H](O)[C@@H]1O` [Compound 349], > 500 nM; under `C[C@H]1O[C@@H](n2cnc3c(C(=O)NCc4ccc(OC(F)F)cc4)ncnc32)[C@H](O)[C@@H]1O` [Compound 301], > 500 nM.
Take `CNc1nc2c(OCc3ccc([N+](=O)[O-])cc3)ncnc2n1[C@@H]1O[C@H](C)[C@@H](O)[C@H]1O` [Compound 19]: the IC50 is 20 to 500 nM.
In the case of `C[C@H]1O[C@@H](n2cnc3c(SCc4cncc(C#N)c4)ncnc32)[C@H](O)[C@@H]1O` [Compound 251], the IC50 is > 500 nM.
As to `C[C@H]1O[C@@H](n2cnc3c(NCc4ccc5c(c4)CCC5)ncnc32)[C@H](O)[C@@H]1O` [Compound 322], the IC50 was > 500 nM.
Same read-out and setting: under `COc1cc(COc2ncnc3c2ncn3[C@@H]2O[C@H](C)[C@@H](O)[C@H]2O)cc(OC)c1OC` [Compound 382] stands > 500 nM; under `C[C@H]1O[C@@H](n2cnc3c(-c4cn(-c5ccc([N+](=O)[O-])cc5)nn4)ncnc32)[C@H](O)[C@@H]1O` [Compound 368], > 500 nM.
For `CCNc1nc2c(OCc3ccc(C#N)cc3)ncnc2n1[C@@H]1O[C@H](C)[C@@H](O)[C@H]1O` [Compound 37], the IC50 was 1 to 20 nM.
Take `CNC(=O)[C@H]1O[C@@H](n2cnc3c(OCc4ccc([N+](=O)[O-])cc4)ncnc32)[C@H](O)[C@@H]1O` [Compound 279]: the IC50 is > 500 nM.
The same measure, in the same setting: under `C[C@H]1O[C@@H](n2c(NCC3CC(F)(F)C3)nc3c(OCc4ccc(C#N)cc4)ncnc32)[C@H](O)[C@@H]1O` [Compound 104] stands 1 to 20 nM; under `OC[C@@H]1C[C@@H](O)[C@H](n2cnc3c(OCc4ccc(OC(F)F)cc4)ncnc32)O1` [Compound 303], > 500 nM.
For `C[C@H]1O[C@@H](n2cnc3c(OCCc4ccc(OC(F)F)cc4)ncnc32)[C@H](O)[C@@H]1O` [Compound 276], the IC50 was > 500 nM.
`C[C@H]1O[C@@H](n2cnc3c(OCc4ccc(Cl)c(C(F)(F)F)c4)ncnc32)[C@H](O)[C@@H]1O` [Compound 250]: the IC50 is > 500 nM.
Take `C[C@H]1O[C@@H](n2cnc3c(OCCc4cc(F)c(Cl)c(F)c4)ncnc32)[C@H](O)[C@@H]1O` [Compound 268]: the IC50 is > 500 nM.

These data come from US20260184712A1, “Heterocyclic Compounds as ENT Inhibitors and Compounds for Use in the Treatment of Cancers” (iTeos Belgium SA, priority 2022, published 2026).
